Data published in patent publication US20170273985A1, “TRICYCLIC DERIVATIVE” (Sunovion Pharmaceuticals Inc., priority 2014, published 2017).

Columns and labels:
Type in all cases: biochemical
PDE1B = PDE1B (Homo sapiens, UniProt Q01064); test: In vitro HTRF PDE1 inhibition assay (PDE1B); conditions: Table 25
In short: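 PDE1A3, 1B or 1C with calmodulin hydrolysed 100 nM cGMP in Tris buffer pH 7.4 (1 mM CaCl2, 10 mM MgCl2, 0.1% BSA, 1% DMSO) for 45 min at 37 °C. Remaining cGMP was measured by HTRF competition (d2-cGMP, anti-cGMP cryptate; 665/615 nm). IC50 is reported in bins: <1, 1-10 and 10-100 μM.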

PDE1A3 = PDE1A3 (Homo sapiens, UniProt P54750); test: In vitro HTRF PDE1 inhibition assay (PDE1A3); conditions: Table 26
Excerpt: (§1) An exemplary procedure for the in vitro Homogenous Time Resolved Fluorescence assay, which can be used to determine the inhibitory action of compounds of the invention toward PDE1 or its isoforms, follows. The HTRF PDE1 assay utilized the HTRF (Homogenous Time Resolved Fluorescence) technology, which is based on the competition between unlabeled cyclic nucleotide and cyclic nucleotide labeled with XL665 for the binding to cyclic nucleotide-specific antibody labeled with cryptate. The HTRF signal is thus inversely proportional to the concentration of cyclic nucleotide being measured. Since phosphodiesterases break down cyclic nucleotides the HTRF signal was used to determine PDE activity. The Cisbio cGMP HTRF assay kit (Cat no: 62GM2PEC) was utilized. Cyclic GMP was diluted to 200 nM in HTRF assay buffer (1 mM CaCl2, 10 mM MgCl2, 10 mM Tris-HCl, 0.1% BSA, pH 7.4). 10 μl of compound or DMSO was diluted in 200 nM cyclic GMP solution and added to wells of a 96 well white plate to give 100 nM cyclic GMP in 1% DMSO final concentration. PDE (1A3, 1B or IC) was diluted to 2× working concentration in HTRF assay buffer with 2 μg/ml calmodulin, and 10 μl was added to initiate the reaction. The plate was then incubated for 45 minutes at 37° C. d2-Labelled cyclic GMP and anti-cGMP cryptate were diluted in 50 mM phosphate buffer, 0.8 M KF, 1% Triton X100, 0.2% BSA, pH 7.0. Following incubation 10 μl d2-cGMP, then 10 μl anti cGMP cryptate were added to each well and the plate was incubated for 45 minutes at room temperature. The plate was then read on Perkin Elmer Victor at 2 different FRET readings ex/emm 340 nm/665 nm and 340 nm/615 nm. Compounds having an IC50 of <1 μM, are denoted as +++. Compounds having an IC50 of 1−10 μM, are denoted as ++. Compounds having an IC50 of 10-100 μM, are denoted as +.

PDE1C = PDE1C (Homo sapiens, UniProt Q14123); test: In vitro HTRF PDE1 inhibition assay (PDE1C); conditions: Table 27
Excerpt: as §1

Measured: IC50

CCO[C@H]1CC[C@H](CN2CCCn3c2nn2c(C4CCOCC4)ncc2c3=O)CC1 [Example 193]
< 1000 nM: PDE1B | PDE1A3 | PDE1C

CC(C)c1ncc2c(=O)n3c(nn12)N(CC1CCOCC1)CC1(CC1)C3 [Example 200]
< 1000 nM: PDE1B | PDE1A3 | PDE1C

CC(C)c1ncc2c(=O)n3c(nn12)N(CC1CCOCC1)C[C@@H](C)C3 [Example 232]
< 1000 nM: PDE1B | PDE1A3 | PDE1C

CC(C)c1ncc2c(=O)n3c(nn12)N(CC1CCOCC1)C[C@H](C)C3 [Example 233]
< 1000 nM: PDE1B | PDE1A3 | PDE1C
